The assay deals with T1, recombinant human KLK5 (Homo sapiens, UniProt Q9Y337).
T1 construct: purchased Novoprotein or R&D Systems C415 or 1108-SE
T1 sequence (Q9Y337 23-293): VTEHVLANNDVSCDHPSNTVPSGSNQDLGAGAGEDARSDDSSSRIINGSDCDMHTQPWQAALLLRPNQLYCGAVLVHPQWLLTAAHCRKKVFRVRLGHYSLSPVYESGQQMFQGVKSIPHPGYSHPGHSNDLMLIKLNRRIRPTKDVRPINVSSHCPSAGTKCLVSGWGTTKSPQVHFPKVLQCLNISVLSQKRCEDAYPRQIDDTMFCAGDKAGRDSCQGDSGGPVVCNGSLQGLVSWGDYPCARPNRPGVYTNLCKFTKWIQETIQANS
The assay can be described thus: Kallikrein (KLK) 5 enzymatic assay (Boc-VPR-AMC fluorogenic substrate). The note with it: recombinant human KLK5 0.1 μg/well, Boc-VPR-AMC 100 μM, pH 7.5, room temperature, 1% DMSO; tested a minimum of three times. Type of assay: biochemical. Summed up: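 Recombinant human KLK5 (0.1 μg/well) was preincubated with compound at room temperature in 0.1 M NaH2PO4, pH 7.5, 1% DMSO, then started with 100 μM Boc-VPR-AMC. The rate was followed at 380/460 nm, and IC50 came from percent inhibition relative to enzyme alone, with at least three runs.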
The IC50 is the concentration needed to halve the response being measured. For the compound `Nc1nccc2c(-c3ccc4c(c3)[C@H](Oc3cc(F)ccc3CC(=O)O)CC4)cccc12` [Compound 422b, (R)-2-(2-((6-(1-aminoisoquinolin-5-yl)-2,3-dihydro-1H-inden-1-yl)oxy)-4-fluorophenyl)acetic acid], the IC50 was under 1 µM.

For the compound `N#Cc1ccc(CC(=O)O)c(O[C@@H]2CCc3ccc(-c4ccc5ccnc(N)c5c4)cc32)c1` [Compound 423c, (R)-2-(2-((6-(1-aminoisoquinolin-7-yl)-2,3-dihydro-1H-inden-1-yl)oxy)-4-cyanophenyl)acetic acid], the IC50 is under 1 µM. Under `N#Cc1ccc(CC(=O)O)c(O[C@@H]2CCc3ccc(-c4cccc5c(N)nccc45)cc32)c1` [Compound 424b, (R)-2-(2-((6-(1-aminoisoquinolin-5-yl)-2,3-dihydro-1H-inden-1-yl)oxy)-4-cyanophenyl)acetic acid] stands under 1 µM. The figure for `Cc1ccc(CC(=O)O)c(O[C@@H]2CCc3ccc(-c4ccc5ccnc(N)c5c4)cc32)c1` [Compound 425c, (R)-2-(2-((6-(1-aminoisoquinolin-7-yl)-2,3-dihydro-1H-inden-1-yl)oxy)-4-methylphenyl)acetic acid] is under 1 µM. As to `Cc1ccc(CC(=O)O)c(O[C@@H]2CCc3ccc(-c4cccc5c(N)nccc45)cc32)c1` [Compound 426b, (R)-2-(2-((6-(1-aminoisoquinolin-5-yl)-2,3-dihydro-1H-inden-1-yl)oxy)-4-methylphenyl)acetic acid], the IC50 is under 1 µM. With `Nc1nccc2ccc(-c3ccc4c(c3)[C@H](Oc3cc(C(F)(F)F)ccc3CC(=O)O)CC4)cc12` [Compound 427c, (R)-2-(2-((6-(1-aminoisoquinolin-7-yl)-2,3-dihydro-1H-inden-1-yl)oxy)-4-(trifluoromethyl)phenyl)acetic acid], the IC50 was under 1 µM. The figure for `Nc1nccc2c(-c3ccc4c(c3)[C@H](Oc3cc(C(F)(F)F)ccc3CC(=O)O)CC4)cccc12` [Compound 428b, (R)-2-(2-((6-(1-aminoisoquinolin-5-yl)-2,3-dihydro-1H-inden-1-yl)oxy)-4-(trifluoromethyl)phenyl)acetic acid] is under 1 µM. Under `N#Cc1cccc(CC(=O)O)c1O[C@@H]1CCc2ccc(-c3ccc4ccnc(N)c4c3)cc21` [Compound 429d, (R)-2-(2-((6-(1-aminoisoquinolin-7-yl)-2,3-dihydro-1H-inden-1-yl)oxy)-3-cyanophenyl)acetic acid] stands 1 to 10 µM. The figure for `N#Cc1cccc(CC(=O)O)c1O[C@@H]1CCc2ccc(-c3cccc4c(N)nccc34)cc21` [Compound 430b, (R)-2-(2-((6-(1-aminoisoquinolin-5-yl)-2,3-dihydro-1H-inden-1-yl)oxy)-3-cyanophenyl)acetic acid] is 1 to 10 µM; for `COc1ccc(O[C@@H]2CCc3ccc(-c4cccc5c(N)nccc45)cc32)c(CC(=O)O)c1` [Compound 431c, (R)-2-(2-((6-(1-aminoisoquinolin-5-yl)-2,3-dihydro-1H-inden-1-yl)oxy)-5-methoxyphenyl)acetic acid] it is under 1 µM. As to `N#Cc1cccc(O[C@@H]2CCc3ccc(-c4ccc5ccnc(N)c5c4)cc32)c1CC(=O)O` [Compound 432c, (R)-2-(2-((6-(1-aminoisoquinolin-7-yl)-2,3-dihydro-1H-inden-1-yl)oxy)-6-cyanophenyl)acetic acid], the concentration for half-maximal inhibition (IC50) lay in the range of 1 to 10 µM. Under `N#Cc1cccc(O[C@@H]2CCc3ccc(-c4cccc5c(N)nccc45)cc32)c1CC(=O)O` [Compound 433b, (R)-2-(2-((6-(1-aminoisoquinolin-5-yl)-2,3-dihydro-1H-inden-1-yl)oxy)-6-cyanophenyl)acetic acid] stands under 1 µM. The figure for `Nc1nccc2ccc(-c3ccc4c(c3)[C@H](Oc3cccc(OC(F)(F)F)c3CC(=O)O)CC4)cc12` [Compound 434c, (R)-2-(2-((6-(1-aminoisoquinolin-7-yl)-2,3-dihydro-1H-inden-1-yl)oxy)-6-(trifluoromethoxy)phenyl)acetic acid] is 1 to 10 µM.

For the compound `Nc1nccc2c(-c3ccc4c(c3)[C@H](Oc3cccc(OC(F)(F)F)c3CC(=O)O)CC4)cccc12` [Compound 435b, (R)-2-(2-((6-(1-aminoisoquinolin-5-yl)-2,3-dihydro-1H-inden-1-yl)oxy)-6-(trifluoromethoxy)phenyl)acetic acid], the IC50 is under 1 µM. The figure for `CCN1CCC2(CC1)C[C@@H](Oc1ccccc1CC(=O)O)c1cc(-c3ccc4ccnc(N)c4c3)ccc12` [Compound 436b, (R)-2-(2-((5-(1-aminoisoquinolin-7-yl)-1′-ethyl-2,3-dihydrospiro[indene-1,4′-piperidin]-3-yl)oxy)phenyl)acetic acid] is under 1 µM. Under `CC1(C)Cc2ccc(-c3cccc4c(N)nccc34)cc2C1Oc1ccccc1CC(=O)O` (centres unmarked) [Compound 437f, 2-(2-((6-(1-aminoisoquinolin-5-yl)-2,2-dimethyl-2,3-dihydro-1H-inden-1-yl)oxy)phenyl)acetic acid] stands under 1 µM; under `CC1(C)Cc2ccc(-c3cccc4c(N)nccc34)cc2C1Oc1cc(F)ccc1CC(=O)O` (centres unmarked) [Compound 438c, 2-(2-((6-(1-aminoisoquinolin-5-yl)-2,2-dimethyl-2,3-dihydro-1H-inden-1-yl)oxy)-4-fluorophenyl)acetic acid], under 1 µM. Take `CC1(C)Cc2ccc(-c3ccc4ccnc(N)c4c3)cc2C1Oc1cc(F)ccc1CC(=O)O` (centres unmarked) [Compound 439b, 2-(2-((6-(1-aminoisoquinolin-7-yl)-2,2-dimethyl-2,3-dihydro-1H-inden-1-yl)oxy)-4-fluorophenyl)acetic acid]: the IC50 is 1 to 10 µM.

For the compound `COc1ccc(CC(=O)O)c(OC2c3cc(-c4cccc5c(N)nccc45)ccc3CC2(C)C)c1` (centres unmarked) [Compound 440c, 2-(2-((6-(1-aminoisoquinolin-5-yl)-2,2-dimethyl-2,3-dihydro-1H-inden-1-yl)oxy)-4-methoxyphenyl)acetic acid], the half-inhibitory concentration (IC50) was under 1 µM. Under `COc1ccc(CC(=O)O)c(OC2c3cc(-c4ccc5ccnc(N)c5c4)ccc3CC2(C)C)c1` (centres unmarked) [Compound 441b, 2-(2-((6-(1-aminoisoquinolin-7-yl)-2,2-dimethyl-2,3-dihydro-1H-inden-1-yl)oxy)-4-methoxyphenyl)acetic acid] stands 1 to 10 µM; under `Nc1nccc2c(-c3ccc4c(c3)C(Oc3cc(F)ccc3CC(=O)O)CC43CCCC3)cccc12` (centres unmarked) [Compound 442c, 2-(2-((5′-(1-aminoisoquinolin-5-yl)-2′,3′-dihydrospiro[cyclopentane-1,1′-inden]-3′-yl)oxy)-4-fluorophenyl)acetic acid], under 1 µM; under `Nc1nccc2ccc(-c3ccc4c(c3)C(Oc3cc(F)ccc3CC(=O)O)CC43CCCC3)cc12` (centres unmarked) [Compound 443b, 2-(2-((5′-(1-aminoisoquinolin-7-yl)-2′,3′-dihydrospiro[cyclopentane-1,1′-inden]-3′-yl)oxy)-4-fluorophenyl)acetic acid], under 1 µM. With `COCCC1(CCOC)CC(Oc2ccccc2CC(=O)O)c2cc(-c3ccc4ccnc(N)c4c3)ccc21` (centres unmarked) [Compound 446f, 2-(2-((6-(1-aminoisoquinolin-7-yl)-3,3-bis(2-methoxyethyl)-2,3-dihydro-1H-inden-1-yl)oxy)phenyl)acetic acid], the IC50 was under 1 µM.

As to `COCCC1(CCOC)CC(Oc2ccccc2CC(=O)O)c2cc(-c3cccc4c(N)nccc34)ccc21` (centres unmarked) [Compound 447b, 2-(2-((6-(1-aminoisoquinolin-5-yl)-3,3-bis(2-methoxyethyl)-2,3-dihydro-1H-inden-1-yl)oxy)phenyl)acetic acid], the IC50 was under 1 µM. The figure for `Cc1cccc(OC2CC3(CCN(S(C)(=O)=O)CC3)c3ccc(-c4ccc5ccnc(N)c5c4)cc32)c1CC(=O)O` (centres unmarked) [Compound 448c, 2-(2-((5-(1-aminoisoquinolin-7-yl)-1′-(methylsulfonyl)-2,3-dihydrospiro[indene-1,4′-piperidin]-3-yl)oxy)-6-methylphenyl)acetic acid] is under 1 µM; for `Cc1cccc(OC2CC3(CCN(S(C)(=O)=O)CC3)c3ccc(-c4cccc5c(N)nccc45)cc32)c1CC(=O)O` (centres unmarked) [Compound 449b, 2-(2-((5-(1-aminoisoquinolin-5-yl)-1′-(methylsulfonyl)-2,3-dihydrospiro[indene-1,4′-piperidin]-3-yl)oxy)-6-methylphenyl)acetic acid] it is under 1 µM. Under `Cc1cccc(OC2CC3(CCN(C(=O)OCC(C)C)CC3)c3ccc(-c4ccc5ccnc(N)c5c4)cc32)c1CC(=O)O` (centres unmarked) [Compound 450c, 2-(2-((5-(1-aminoisoquinolin-7-yl)-1′-(isobutoxycarbonyl)-2,3-dihydrospiro[indene-1,4′-piperidin]-3-yl)oxy)-6-methylphenyl)acetic acid] stands under 1 µM; under `Cc1cccc(OC2CC3(CCN(C(=O)OCC(C)C)CC3)c3ccc(-c4cccc5c(N)nccc45)cc32)c1CC(=O)O` (centres unmarked) [Compound 451b, 2-(2-((5-(1-aminoisoquinolin-5-yl)-1′-(isobutoxycarbonyl)-2,3-dihydrospiro[indene-1,4′-piperidin]-3-yl)oxy)-6-methylphenyl)acetic acid], under 1 µM. The figure for `COC(=O)N1CCC2(CC1)CC(Oc1cc(OC)ccc1CC(=O)O)c1cc(-c3ccc4ccnc(N)c4c3)ccc12` (centres unmarked) [Compound 452c, 2-(2-((5-(1-aminoisoquinolin-7-yl)-1′-(methoxycarbonyl)-2,3-dihydrospiro[indene-1,4′-piperidin]-3-yl)oxy)-4-methoxyphenyl)acetic acid] is under 1 µM.
